Where “and” joins values, the source holds several entries; their conditions need not be identical. Identical values can stand only once. Calls of active or inactive are those of the source.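 How the source made its calls: active means compounds giving half or more protection of infected cells from virus-caused growth loss, again on retest; inactive means the rest.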 Where a SMILES comes first, the peptide text is derived from it. The star is where a group is joined. Boc = CC(C)(C)OC(=O)*; tBu = CC(C)(C)*
Tested on: CEM cells HIV-1 protection, formazan growth assay
Assay: NCI AIDS Antiviral Assay
Settings: for IC50: measured here: growth of uninfected CEM cells
Method in brief: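 Steps: treat uninfected and HIV-1-infected human CEM cells at five drug levels; quantify growth by soluble formazan; retest any compound reaching 50% protection; classify actives from the retest.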

Row | SMILES | outcome | EC50 [µM] | IC50
1 | O=C(O)Cc1ccc2c(c1)C(=O)c1ccccc1CO2 | inactive | – | –
2 | COc1cnnc2c(C)c(-c3ccccc3)nn12 | – | > 200 | 46.8 µM
3 | CCCCCCCCCCCC(=O)OCC1OC(n2cc(F)c(=O)[nH]c2=O)C(NC(=O)OCc2ccccc2)C(OC(=O)CCCCCCCCCCC)C1O (stereo unspecified) | – | > 6.61 | > 6.61 µM
4 | CCCCCCCCCCCCNS(=O)(=O)c1ccc(-c2c3nc(c(-c4ccc(S(=O)(=O)NCCCCCCCCCCCC)cc4)c4ccc([nH]4)c(-c4ccc(S(=O)(=O)NCCCCCCCCCCCC)cc4)c4nc(c(-c5ccc(S(=O)(=O)NCCCCCCCCCCCC)cc5)c5ccc2[nH]5)C=C4)C=C3)cc1 | – | > 100 | > 100 µM
5 | O=C1CCC(N2C(=O)C3C4c5ccccc5C(c5ccccc54)C3C2=O)C(=O)N1 (stereo unspecified) | – | > 200 | > 200 µM
6 | O=C1C(C(c2ccc([N+](=O)[O-])cc2)N2CCOCC2)=C(O)C(c2ccccc2)N1c1ccccc1 (stereo unspecified) | – | > 100 | 24.5 µM
7 | COc1cc2cnc3c4cc(OC)c(OC)cc4ccc3c2cc1OC | inactive | – | –
8 | S=C1C(=Nc2ccccc2)N(c2ccccc2)/C(=N\c2ccccn2)N1c1ccccc1 | – | > 200 | 6.31 µM
9 | c1ccc(CC(c2ccccc2)N2CCOCC2)cc1 (stereo unspecified) | inactive | – | –
10 | CC(OC(C)(C)C)C(NC(=O)C(N)CCCCNC(=O)OC(C)(C)C)C(=O)NC(Cc1ccccc1)C(=O)O (stereo unspecified) (H-Lys(Boc)-Thr(tBu)-Phe-OH; configuration not given here) | – | > 200 | > 200 µM
11 | CC(C)N=c1sc(-c2ccccc2)c(C#N)c(=O)n1C(C)C | – | > 75.9 | 55 µM
12 | Cc1ccc(CCCCCOc2ccc(C3=NCCO3)cc2)s1 | inactive | – | –
13 | COc1c2c(c3ccccc3c1O)C1C=CC2C1 (stereo unspecified) | – | > 110 | 10 µM
14 | Cc1ccc2[nH]c3[nH]c(=S)[nH]c(=O)c3c2c1 | – | 22.4 | 162 µM
15 | CC1=C2CC(C)(C)CC(=O)C2(C)CCC1=O (stereo unspecified) | inactive | – | –
16 | CC1(C)C=C(/C=N/Nc2ccccc2)C(C#N)=C(O)C1(C#N)C#N | – | > 200 | 23.4 µM
17 | O=c1[nH]c2ccccc2nc1CBr | – | > 200 | 2.82 µM
18 | COc1cc2oc(=O)cc(C)c2cc1OC | – | > 200 | > 200 µM
19 | CC(=O)N(C(C)=O)c1cnc2c(nc3cc(C)ccn32)c1C | – | > 200 | 52.5 µM
20 | COc1cc(OC)cc(C2=NNc3n[nH]c(=S)n3N2)c1 | – | > 123 | > 123 µM
21 | COC1C(O)C(C)OC(OC2C(Oc3cccc4c(O)c5c(=O)oc6ccc(C)c7c(=O)oc(c34)c5c67)OC(C)C3O[C@H](c4ccccc4)OC32)C1O (stereo partly specified) | – | > 7.24 | 0.0912 µM

Row | SMILES | outcome | EC50 [µM] | IC50
22 | Clc1ccc2c(Cl)nc(-c3ccccc3)nc2c1 | inactive | – | –
23 | c1ccc2sc(SCN3CCN(CSc4nc5ccccc5s4)CC3)nc2c1 | – | > 1.62 | > 1.62 µM
24 | C/C(=N\NC(=O)c1ccncc1)c1cccc(/C(C)=N/NC(=O)c2ccncc2)n1.O=S(=O)([O-])[O-].[Fe+2] | – | > 200 | 16.2 µM
25 | C(/C=C/c1ccccc1)=Nc1ccc(SSc2ccc(N=C/C=C/c3ccccc3)cc2)cc1 | – | > 200 | 16.6 µM
26 | CC(C)c1cccc(C(C)C)c1NC1=CC(=O)C(=O)c2ccccc21 | – | > 30.2 | > 30.2 µM
27 | O=C1OC(c2ccccc2)N/C1=C\c1ccc2c(c1)OCO2 (stereo unspecified) | – | > 200 | 69.2 µM
28 | Cc1nc2[nH]ncn2c(=O)c1CCO | – | > 200 | > 200 µM
29 | Cc1cc(C)c(C(=O)O)c(SSc2cc(C)cc(C)c2C(=O)O)c1 | – | 46.8 | 123 µM
30 | CN(C)C(=S)SN(C)C(=O)Nc1ccccc1 | – | > 200 | 13.2 µM
31 | CC(=O)N(O)Cc1ccccc1 | – | > 1510 | 692 µM
32 | CN(CC#N)[C@H]1CCC[C@]1(O)C#C[Si](C)(C)c1ccccc1 | – | > 16.6 | > 16.6 µM
33 | C[C@H](NC(=O)c1ccccc1SC(=O)OCCCCCl)C(N)=O | – | 20.9 | > 200 µM
34 | CCC1(CC)COP(=S)([S][Sb]([O]C(C)=O)[S]P2(=S)OCC(CC)(CC)CO2)OC1 | – | > 57.5 | 9.33 µM
35 | COC(=O)C(/C(=N/NC(N)=O)C(=O)Nc1ccc(C)cc1)c1nc2ccc([N+](=O)[O-])cc2[nH]c1=O (stereo unspecified) | – | > 141 | > 141 µM
36 | CN(C)CCCCN1c2ccccc2Sc2ccc(C(=O)c3ccccc3)cc21 | – | > 200 | 6.61 µM
37 | CCCC(C(=O)OC)C(=O)C(C)c1nc2n(c1O)C(=N)N=N2 (stereo unspecified) | – | > 200 | > 200 µM
38 | O=C(O)/C=C\Sc1ccccc1C(=O)O | – | > 1120 | > 1120 µM
39 | Cc1nc(Nc2ccc(Cl)c(Cl)c2)sc1C(/C=C/c1ccc2c(c1)OCO2)=N/Nc1ccc([N+](=O)[O-])cc1[N+](=O)[O-] | – | > 2.34 | > 2.34 µM
40 | O=[N+]([O-])c1cccc(C2CC(c3ccccc3)=Nc3ccccc3S2)c1 (stereo unspecified) | – | > 35.5 | 2.34 µM
41 | CC1=C/N\C(C#N)=C(C#N)/N=C/C(C)=C\N\C(C#N)=C(C#N)/N=C\1 | – | > 200 | > 200 µM
42 | O=C(O)c1ccc2c(c1C(=O)O)C(=O)c1ccccc1C2=O | – | > 200 | > 200 µM

Row | SMILES | outcome | EC50 [µM] | IC50
43 | Cc1cccc(C=NC23CC4CC(CC(C4)C2)C3)c1 | – | > 102 | > 102 µM
44 | O=C(O)Cc1cccc(=O)c(O)c1C(=O)O | – | > 200 | 129 µM
45 | CCCCCc1cc(O)cc2c1Oc1cc(O)cc(C(=O)CCCC)c1C(=O)O2 | – | > 56.2 | 28.2 µM
46 | OC12CCC3(OC4CCCCO4)c4ccccc4C3C1c1ccccc12 (stereo unspecified) | – | > 200 | 89.1 µM
47 | C[N+](C)(C)CC(=O)NC(=O)N/N=C\C(CC#N)CN(Cc1ccccc1)Cc1ccccc1 (stereo unspecified) | – | > 74.1 | > 74.1 µM
48 | COC(=O)Cn1c(=O)oc2nc(-c3ccccc3)cc(C(F)(F)F)c21 | – | > 200 | 129 µM
49 | [O-]c1on[n+]2c1CSC2 | – | > 1740 | > 1740 µM
50 | CC1C2(C)OC(=N)C(C#N)(C(C)O2)C1(C#N)C#N (stereo unspecified) | – | > 200 | 9.77 µM
51 | COc1c(C)c(C/C=C(\C)CC/C=C(\C)CC/C=C(\C)CCC=C(C)C)c(OC)c(OC)c1OC | – | > 200 | > 200 µM
52 | CC1CN=C(N(C(=O)Nc2ccc(Cl)c(Cl)c2)c2ccccc2)S1 (stereo unspecified) | – | > 200 | > 200 µM
53 | Cc1ccc(NC(=S)/C(=C(\[O-])c2ccc([N+](=O)[O-])cc2)[n+]2ccc(C(C)C)cc2)c(C)c1 | – | > 200 | 158 µM
54 | CCCCN(C(=O)NCCC)S(=O)(=O)c1ccc(Cl)cc1 | inactive | – | –
55 | CC(=O)N1OC(C)CC1Nc1ccc(Br)cc1 (stereo unspecified) | – | > 200 | 25.1 µM
56 | COC(=O)/C(=N/NC(C)(C)C)C(C(=O)C=C(C)C)C(=O)C(=O)Nc1ccc(Cl)cc1C (stereo unspecified) | – | > 398 | 269 µM
57 | C=C(C)C(=O)OC1C[C@H](COC(C)=O)C2CC=C(C)C2C2OC(=O)C(=C)[C@H]12 (stereo partly specified) | – | > 200 | 1.05 µM
58 | Cc1ccc(S(=O)(=O)N(C)C)cc1NC1=NCCO1 | – | > 200 | > 200 µM
59 | CCN1C(Cl)=NS(=O)(=O)c2ccccc21 | – | > 200 | 91.2 µM
60 | NC(=O)NN=C1C[C@H]2CCCC[C@H]2C1 | inactive | – | –
61 | O=c1onc(Nc2ccccc2)n1-c1ccccc1 | – | > 200 | 129 µM
62 | CCCCOP(=O)(/N=C/OC(C)C)OCCCC | – | > 200 | > 200 µM
63 | CCCC(=O)C1=C(O)C(Cc2c(O)c(C)c(O)c(C(=O)CCC)c2O)=C(O)C(C)(C)C1=O | – | > 200 | 10.7 µM

Row | SMILES | outcome | EC50 [µM] | IC50
64 | NC(=O)c1cnc2cc(O)c(O)cc2c1 | – | > 209 | 14.1 µM
65 | Cc1ccc(Sc2ccc(C)cc2[N+](=O)[O-])c([N+](=O)[O-])c1 | – | > 97.7 | > 97.7 µM
66 | Cc1cc(C)nc(NC(P(=O)(O)O)P(=O)(O)O)n1 | – | > 200 | > 200 µM
67 | NC(CCC(=O)NC(CSSCC(NC(=O)CCC(N)C(=O)O)C(=O)O)C(=O)O)C(=O)O (stereo unspecified) | – | > 200 | > 200 µM
68 | O=C(O)c1cc(O)cc(O)c1N=Nc1ccc(CCc2ccc(N=Nc3c(O)cc(O)cc3C(=O)O)cc2S(=O)(=O)O)c(S(=O)(=O)O)c1 | – | 2.75 | 75.9 µM
69 | COc1ccc2c(c1)C(=O)C13CC(C(=O)OCc4ccccc4)C(OC(C)=O)(CCC21)C3 (stereo unspecified) | – | > 72.4 | > 72.4 µM
70 | O=S(=O)(c1ccc(O)cc1)c1ccc(O)cc1 | – | > 200 | 158 µM
71 | O=C1C=C(Nc2ccc(S(=O)(=O)Nc3ncccn3)cc2)c2ccccc2C1=O | – | > 447 | 67.6 µM
72 | Cc1ccc(C)c(COCCOCn2c(=O)[nH]c(=O)c3cc(Br)ccc32)c1 | – | > 200 | > 200 µM
73 | Cc1ccc(C2(O)CC(c3ccc([N+](=O)[O-])o3)=NN2C(=O)COc2ccc(Cl)cc2)cc1 (stereo unspecified) | – | > 11.5 | > 11.5 µM
74 | CCOC(=O)CC(O)(c1ccccc1)c1ccccc1 | – | > 10 | > 10 µM
75 | CCCC(=O)NC(Nc1ccc(S(=O)(=O)Nc2nc(C)cc(C)n2)cc1)(C(F)(F)F)C(F)(F)F | – | > 200 | > 200 µM
76 | C[C@]12CC[C@H](OC(=O)/C=C\c3ccccc3N(CCCl)CCCl)CC1CC[C@@H]1C2CC[C@]2(C)NC(=O)CCC12 (stereo partly specified) | inactive | – | –
77 | CC(C)(C)OC(=O)N[C@@H](Cc1ccccc1)CN1CCCC1C(=O)OCc1ccccc1 (stereo partly specified) | – | > 30.9 | > 30.9 µM
78 | COC(=O)c1cc2ccc(O)c(O)c2cn1 | – | > 195 | 2.24 µM and 2.34 µM
79 | Nc1nc(Cl)cc(NCC2(CO)CC(O)C2)n1 (stereo unspecified) | – | > 200 | > 200 µM
80 | N#Cc1cc(NC(=O)c2ccccc2)c(=O)n2c1[nH]c1ccccc12 | inactive | – | –
81 | CC1=NN(c2ccccc2)C(=O)/C1=C\n1c(=S)[nH]c2ccccc21 | – | > 200 | 87.1 µM
82 | C/C=C/CC(C)C(O)C1C(=O)NC(CC)C(=O)N(C)CC(=O)N(C)C(CC(C)C)C(=O)NC(C(C)C)C(=O)N(C)C(CC(C)C)C(=O)NC(C)C(=O)NC(C)C(=O)N(C)C(CC(C)C)C(=O)N(C)C(CC(C)C)C(=O)N(C)C(C(C)C)C(=O)N1C (stereo unspecified) | – | 3.39 | 8.13 µM
83 | COC(=O)C1CC(C(=O)OC)c2nc3cc(C)ccc3nc21 (stereo unspecified) | – | > 437 | > 437 µM
